Experimental data published in patent US20100261753A1, “METHODS FOR PREVENTING AND/OR TREATING DEGENERATIVE DISORDERS OF THE CENTRAL NERVOUS SYSTEM” (AMICUS THERAPEUTICS, INC., priority 2009, published 2010).
Positions count from the first letter of the chain named. Several values for one entry are separate records, joined by “and”; a condition that tells them apart may be missing. Equal values may be shown once. Where a name gives a salt, the structure may show the parent alone. Read-outs that look alike come from different tables or passages of the source. One block for each compound: values may come before it.

How the values were obtained:
[1] = target: T1, recombinant human GCase (rhGCase; Cerezyme) (Homo sapiens, UniProt P04062, R534H); experiment: In vitro enzyme inhibition assay of rhGCase with 4-MU-β-D-Glc substrate; type: biochemical; conditions: for Ki: from IC50 by Cheng-Prusoff equation
T1 construct: purchased Genzyme Corp
T1 sequence (P04062 40-536 R534H): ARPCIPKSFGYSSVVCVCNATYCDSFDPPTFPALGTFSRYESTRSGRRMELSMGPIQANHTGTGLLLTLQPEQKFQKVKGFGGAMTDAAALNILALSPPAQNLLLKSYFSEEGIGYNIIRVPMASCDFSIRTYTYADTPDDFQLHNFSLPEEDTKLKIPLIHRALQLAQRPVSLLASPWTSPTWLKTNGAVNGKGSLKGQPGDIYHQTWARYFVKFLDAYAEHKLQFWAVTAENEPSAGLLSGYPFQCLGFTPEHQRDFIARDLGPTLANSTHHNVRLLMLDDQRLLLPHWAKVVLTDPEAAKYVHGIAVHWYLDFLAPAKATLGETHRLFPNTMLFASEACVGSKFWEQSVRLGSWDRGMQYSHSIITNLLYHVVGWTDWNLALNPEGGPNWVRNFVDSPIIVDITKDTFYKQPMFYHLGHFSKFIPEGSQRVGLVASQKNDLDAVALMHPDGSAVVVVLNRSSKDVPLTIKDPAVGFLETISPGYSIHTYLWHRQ
Procedure: The binding affinity (defined here by Ki binding constant) of GCase for small molecule pharmacological chaperones described in this document were empirically determined using enzyme inhibition assays. In brief, the enzyme inhibition assays used monitored the ability of test compound to bind and prevent the hydrolysis of a fluorogenic substrate in a concentration-dependent manner. Specifically, the enzyme activity of recombinant human GCase (rhGCase; Cerezyme®, Genzyme Corp.) was measured using the 4-methylumbelliferyl-β-D-glucopyranoside (4-MU-β-D-Glc) fluorogenic substrate in the absence or in the presence of varying amounts of each test compound. […] The enzyme inhibition assays were performed at both pH 7.0 (endoplasmic reticulum pH) and at pH 5.2 (lysosomal pH) to gain insight into the binding affinity (i.e., potency) of compounds for GCase in the endoplasmic reticulum and lysososome.
Enzyme (Cerezyme®, a recombinant form of the human enzyme β-glucocerebrosidase) was also diluted in the same buffer “M” at pH 7.0 and pH 5.2. […] Five μl of diluted enzyme was added to 15 μl of the various inhibitor concentrations or buffer “M” alone and incubated at 37° C. for 1 hour with 50 μl of the substrate preparation to assess β-glucosidase activity at pH 7.0 and pH 5.2.

GCase = target: T2, GCase (Homo sapiens, UniProt P04062); experiment: GCase activity enhancement (EC50, Emax; Table 2B); type: cell-based
T2 sequence (P04062 40-536): T1 sequence (P04062 40-536 R534H) with H495R

[2] = Compound concentration in brain, spleen and plasma samples of the GCase enhancement study; type: in vivo, mice (C57BL/6); conditions: male, C57BL/6, mouse, po, nine doses, 24-hour washout
Procedure: The ability of orally administered test compounds (the hydrochloride salt form of Compound A and Compound B) to elevate GCase levels as compared to reference compound, IFG-tartrate, was assessed in mice. […] Seven animals were used per dose. The dosing solutions were prepared in water. Compounds were administered over 2 weeks as follows: week 1, Mon-Fri (On), Sat-Sun (Off); week 2, Mon-Thu (On); necropsy on Friday. Thus, a total of 9 doses (dosing solutions prepared fresh every day) were given to each mouse, with a 24-hour washout between the last dose and necropsy.
Plasma was collected by spinning blood at 2700 g for 10 minutes at 4° C. Liver, spleen, lung, and brain tissues were removed, washed in cold PBS, blotted dry, flash frozen on dry ice, and stored at −80° C. until analysis. GCase levels were measured by homogenizing approximately 50 mg tissue in 500 μl McIlvane (MI) buffer (100 mM sodium citrate, 200 mM sodium phosphate dibasic, 0.25% sodium taurocholate, and 0.1% Triton X-100, pH 5.2) at pH 5.2 for 3-5 seconds on ice with a micro homogenizer. Homogenates were then incubated at room temperature without and with 2.5 mM conduritol-B-epoxide (CBE) for 30 min. Finally, 3.7 mM 4-methylumbeliferryl-β-glucoside (4-MUG) substrate was added and incubated at 37° C. for 60 min. Reactions were stopped by addition of 0.4 M glycine, pH 10.6. Fluorescence was measured on a plate reader for 1 sec/well using 355 nm excitation and 460 nm emission. Total protein was determined in lysates using the MicroBCA kit according to the manufacturer's instructions. A 4-methylumbelliferone (4-MU) standard curve ranging from 1.0 nM to 50 μM was run in parallel for conversion of raw fluorescence data to absolute GCase activity (in the presence and absence of CBE) and expressed as nanomoles of 4-MU released per milligram of protein per hour (nmol/mg protein/hr). GCase levels and protein levels were calculated using Microsoft Excel (Redmond, Wash.) and GraphPad Prism version 4.02.

lysosomal GCase = target: T3, lysosomal GCase (Homo sapiens, UniProt P04062); experiment: In situ lysosomal GCase inhibition and washout assay in fibroblasts from a normal subject; type: cell-based; conditions: for IC50: normal fibroblasts, 16-24 h incubation, PFBFDβGlu substrate; for In Situ Washout: washout time after treatment at IC90, single exponential fit
T3 construct: lysosomal GCase activity was assayed in situ using fibroblasts established from a normal subject; endogenous in cells; host or cells: fibroblasts established from a normal subject
T3 sequence (P04062 40-536): T1 sequence (P04062 40-536 R534H) with H495R
Procedure: For the dose-response assays, cells were incubated with the in situ substrate 5-(pentafluorobenzoylamino)fluorescein di-β-D-glucopyranoside (PFBFDβGlu) for 1 hour and subsequently lysed to determine the extent of substrate hydrolysis in the presence of compound. […] Inhibition was determined as the ratio of activity in the presence of compound to that in the absence of compound. […] Cells were washed extensively and incubated in drug-free medium to allow net compound efflux from cells. Cells were then tested for lysosomal GCase activity at 2 hour intervals over a total period of 8 hours following compound removal. The increase in activity over time was fitted with a single exponential function to determine the compound's washout time.

[3] = pH 7 (endoplasmic reticulum pH), read-out: IC50 pH 7

IC50 ([1]; pH 5.2, average of three independent experiments, Table 4A, read-out: IC50 pH 5.2): 73 ± 9 nM
IC50 ([1]; pH 5.2, average of three independent experiments, Table 4B, read-out: IC50 pH 5.2): 73 ± 9 nM
Ki ([1]; pH 5.2, read-out: Ki pH 5.2): 384 ± 2.1 nM
IC50 [1, 3]: 9.8 ± 0.5 nM
Ki ([1]; pH 7, read-out: Ki pH 7): 5.1 ± 0.3 nM
EC50 (GCase): 9.6 ± 1 nM
Emax (GCase): 104 ± 3.4%
concentration at 24 h ([2]; brain, 10 mg/kg p.o., Table 4A): 246 ± 42 nM
concentration at 24 h ([2]; brain, 100 mg/kg p.o., Table 4A): 2070 ± 231 nM
concentration at 24 h ([2]; plasma, 10 mg/kg p.o., Table 4C): 104 ± 15 nM
concentration at 24 h ([2]; plasma, 100 mg/kg p.o., Table 4C): 1530 ± 601 nM
concentration at 24 h ([2]; spleen, 10 mg/kg p.o., Table 4B): 645 ± 214 nM
concentration at 24 h ([2]; spleen, 100 mg/kg p.o., Table 4B): 2160 ± 464 nM
IC50 (lysosomal GCase): 121 ± 7 nM
In Situ Washout (lysosomal GCase): 2.9 ± 0.22 h
Compound: O[C@@H]1[C@@H](CCl)CNC[C@H]1O [Compound B, (3R,4R,5S)-5-(chloromethyl)piperidine-3,4-diol]
effect on GCase activity (GCase): concentration-dependent increase in GCase activity
enhancement of enzyme activity compared to IFG-tartrate (GCase): enhanced enzyme activity to the same maximum level at much lower concentration

Compound: O[C@@H]1CNCC(CF)[C@H]1O (stereo in doubt) [Compound A, (3R,4R,5R)-5-(fluoromethyl)piperidine-3,4-diol]
IC50 ([1]; pH 5.2, average of three independent experiments, Table 3A, read-out: IC50 pH 5.2): 10 ± 1 nM
IC50 ([1]; pH 5.2, average of three independent experiments, Table 3B, read-out: IC50 pH 5.2): 10 ± 1 nM
concentration at 24 h ([2]; brain, 10 mg/kg p.o., Table 3A): 124 ± 11 nM
concentration at 24 h ([2]; brain, 100 mg/kg p.o., Table 3A): 726 ± 51 nM
concentration at 24 h ([2]; plasma, 10 mg/kg p.o., Table 3C): 32 ± 2.4 nM
concentration at 24 h ([2]; plasma, 100 mg/kg p.o., Table 3C): 254 ± 73.5 nM
concentration at 24 h ([2]; spleen, 10 mg/kg p.o., Table 3B): 69 ± 6 nM
concentration at 24 h ([2]; spleen, 100 mg/kg p.o., Table 3B): 304 ± 63 nM

Compound: O[C@@H]1CNCC(CF)[C@H]1O (stereo in doubt) [Compound A-HCl, (3R,4R,5R)-5-(fluoromethyl)piperidine-3,4-diol hydrochloride]
Ki ([1]; pH 5.2, read-out: Ki pH 5.2): 6 nM
IC50 [1, 3]: 6 nM and 7 nM
Ki ([1]; pH 7, read-out: Ki pH 7): 3 nM and 4 nM
effect on GCase activity (GCase): concentration-dependent increase in GCase activity
enhancement of enzyme activity compared to IFG-tartrate (GCase): enhanced enzyme activity to the same maximum level at much lower concentration
IC50 (lysosomal GCase): 17 ± 8 nM
In Situ Washout (lysosomal GCase): 6.6 ± 0.12 h
